Measured values published in patent US20200131180A1, “POSITIVE ALLOSTERIC MODULATORS OF THE MUSCARINIC ACETYLCHOLINE RECEPTOR M1” (Vanderbilt University, priority 2018, published 2020).

Molecular target: T1, human mAChR M1 (Homo sapiens, UniProt P11229)
T1 sequence (P11229 1-460): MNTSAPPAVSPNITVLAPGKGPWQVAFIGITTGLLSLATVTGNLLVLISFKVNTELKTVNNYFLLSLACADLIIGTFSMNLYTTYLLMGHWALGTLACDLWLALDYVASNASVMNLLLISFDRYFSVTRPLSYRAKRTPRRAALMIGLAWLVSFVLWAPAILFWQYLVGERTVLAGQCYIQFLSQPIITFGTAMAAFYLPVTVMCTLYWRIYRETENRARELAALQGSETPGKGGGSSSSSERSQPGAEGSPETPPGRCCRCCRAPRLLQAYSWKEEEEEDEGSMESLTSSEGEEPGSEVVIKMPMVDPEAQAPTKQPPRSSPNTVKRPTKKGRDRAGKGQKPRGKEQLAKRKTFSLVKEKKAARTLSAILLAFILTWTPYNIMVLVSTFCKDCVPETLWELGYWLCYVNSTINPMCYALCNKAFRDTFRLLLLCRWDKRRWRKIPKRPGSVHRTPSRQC
Experiment: mAChR M1 cell-based functional assay (calcium mobilization, PAM activity)
Conditions: CHO-K1 cells expressing hM1, calcium flux (Fluo-4); for EC50: concentration-dependent increase in the EC20 acetylcholine response; for Emax: potentiation of EC20 acetylcholine response
From the text: Chinese hamster ovary (CHO-K1) cells stably expressing rat (r)M1 were purchased from the American Type Culture Collection and cultured according to their indicated protocol. CHO cells stably expressing human (h)M2, hM3, and hM5 were described previously (Levey, et al., 1991); hM1 and hM4 cDNAs were purchased from Missouri S&T cDNA Resource; rM4 cDNA was provided by T. I. Bonner (National Institutes of Health, Bethesda, Md.). rM2 and rM3 were cloned from a rat brain cDNA library and sequence verified. hM1, rM2, rM3, hM4, and rM4 cDNAs were used to stably transfect CHO-K1 cells purchased from the American Type Culture Collection using Lipofectamine 2000. To make stable rM2, hM2, rM3, hM4, and rM4 cell lines for use in calcium mobilization assays, these cells also were stably transfected with a chimeric G-protein (Gqi5) (provided by B. R. Conklin, University of California, San Francisco) using Lipofectamine 2000. rM1, hM1, rM3, hM3, rM5, and hM5 cells were grown in Ham's F-12 medium containing 10% heat-inactivated fetal bovine serum (FBS), 20 mM HEPES, and 50 μg/mL G418 sulfate. rM2-Gqi5, hM2-Gqi5, and hM4-Gqi5 cells were grown in the same medium also containing 500 μg/mL Hygromycin B. Stable rM4-Gqi5 cells were grown in DMEM containing 10% heat-inactivated FBS, 20 mM HEPES, 400 μg/mL G418 sulfate, and 500 μg/mL Hygromycin B.
For high throughput measurement of agonist-evoked increases in intracellular calcium, CHO-K1 cells stably expressing muscarinic receptors were plated in growth medium lacking G418 and hygromycin at 15,000 cells/20 μL/well in Greiner 384-well black-walled, tissue culture (TC)-treated, clear-bottom plates (VWR). Cells were incubated overnight at 37° C. and 5% CO2. The next day, cells were washed using an ELX 405 (BioTek) with four washes (80 μL) of assay buffer then aspirated to 20 μL. Next, 20 μL of 16 μM Fluo-4/acetoxymethyl ester (Invitrogen, Carlsbad, Calif.) prepared as a 2.3 mM stock in DMSO and mixed in a 1:1 ratio with 10% (w/v) Pluronic F-127 and diluted in assay buffer was added to the wells and the cell plates were incubated for 50 min at 37° C. and 5% CO2. Dye was removed by washing with the ELX 405 (four 80 μL washes of assay buffer) then aspirated to 20 μL. Compound master plates were formatted in an 11 point CRC format (1:3 dilutions) in 100% DMSO with a starting concentration of 10 mM using the BRAVO liquid handler (Agilent). Test compound CRCs were then transferred to daughter plates (240 nL) using the Echo acoustic plate reformatter (Labcyte, Sunnyvale, Calif.) and then diluted into assay buffer (40 μL) to a 2× stock using a Thermo Fisher Combi (Thermo Fisher Scientific, Waltham, Mass.).
Calcium flux was measured using the Functional Drug Screening System (FDSS) 6000 (Hamamatsu Corporation, Tokyo, Japan) as an increase in the fluorescent static ratio. Compounds were applied to cells (20 μL, 2×) using the automated system of the FDSS 6000 at 4 s into the 300 s protocol and the data were collected at 1 Hz. At 144 s into the 300s protocol, 10 μL of an EC20 concentration of the muscarinic receptor agonist acetylcholine was added (5×), followed by the addition of 12 μL an EC80 concentration of acetylcholine at the 230 s time point (5×). Agonist activity was analyzed as a concentration-dependent increase in calcium mobilization upon compound addition. Emax values for agonist activity are expressed relative to the maximum for acetylcholine. Positive allosteric modulator activity was analyzed as a concentration-dependent increase in the EC20 acetylcholine response. Antagonist activity was analyzed as a concentration-dependent decrease in the EC80 acetylcholine response. Concentration-response curves were generated using a four-parameter logistical equation in XLfit curve fitting software (IDBS, Bridgewater, N.J.) for Excel (Microsoft, Redmond, Wash.) or Prism (GraphPad Software, Inc., San Diego, Calif.). […]

SMILES	EC50	Emax
Cn1ccc(-c2ccc(Cc3cc(C(=O)N[C@H]4CCOC[C@@H]4O)c4nccn4c3)cn2)n1 [compound 26, N-[(3R,4S)-3-hydroxytetrahydropyran-4-yl]-6-[[6-(1-methylpyrazol-3-yl)-3-pyridyl]methyl]imidazo[1,2-a]pyridine-8-carboxamide]	4350 nM	79%
Cn1ccc(-c2ccc(Cc3cc(C(=O)N[C@H]4CCOC[C@@H]4O)c4nccn4c3)c(F)c2)n1 [compound 53, 6-[[2-fluoro-4-(1-methylpyrazol-3-yl)phenyl]methyl]-N-[(3R,4S)-3-hydroxytetrahydropyran-4-yl]imidazo[1,2-a]pyridine-8-carboxamide]	249 nM	66%
O=C(N[C@H]1CCOC[C@@H]1O)c1cc(Cc2ccc(-n3cccn3)cc2)cc2ncnn12 [compound 18, N-[(3R,4S)-3-hydroxytetrahydropyran-4-yl]-7-[(4-pyrazol-1-ylphenyl)methyl]-[1,2,4]triazolo[1,5-a]pyridine-5-carboxamide]	4440 nM	81%
O=C(N[C@H]1CCCC[C@@H]1O)c1cc(Cc2ccc(C(F)(F)F)nc2)cn2ccnc12 [compound 64, N-[(1S,2S)-2-hydroxycyclohexyl]-6-[[6-(trifluoromethyl)-3-pyridyl]methyl]imidazo[1,2-a]pyridine-8-carboxamide]		46%
Cc1cn2cc(Cc3ccc(-c4ccn(C)n4)cc3)cc(C(=O)N[C@H]3CCOC[C@@H]3O)c2n1 [compound 21, N-[(3R,4S)-3-hydroxytetrahydropyran-4-yl]-2-methyl-6-[[4-(1-methylpyrazol-3-yl)phenyl]methyl]imidazo[1,2-a]pyridine-8-carboxamide]	2240 nM	43%
O=C(N[C@H]1CCOC[C@@H]1O)c1cc(Cc2ccc(-n3cccn3)cc2)cn2ccnc12 [compound 23, N-[(3R,4S)-3-hydroxytetrahydropyran-4-yl]-6-[(4-pyrazol-1-ylphenyl)methyl]imidazo[1,2-a]pyridine-8-carboxamide]	341 nM	82%
O=C(N[C@H]1CCCCC[C@@H]1O)c1cc(Cc2ccc(-n3cccn3)nc2)cn2ccnc12 [compound 61, N-[(1S,2S)-2-hydroxycycloheptyl]-6-[(6-pyrazol-1-yl-3-pyridyl)methyl]imidazo[1,2-a]pyridine-8-carboxamide]	2540 nM	52%
Cn1ccc(-c2ccc(Cc3cc(C(=O)N[C@H]4CCCC[C@@H]4O)c4nccn4c3)cn2)n1 [compound 25, N-[(1S,2S)-2-hydroxycyclohexyl]-6-[[6-(1-methylpyrazol-3-yl)-3-pyridyl]methyl]imidazo[1,2-a]pyridine-8-carboxamide]	904 nM	83%
Cn1cc(-c2ccc(Cc3cc(C(=O)NC4CC5(COC5)C4)c4ncnn4c3)cn2)cn1 [compound 15, 6-[[6-(1-methylpyrazol-4-yl)-3-pyridyl]methyl]-N-(2-oxaspiro[3.3]heptan-6-yl)-[1,2,4]triazolo[1,5-a]pyridine-8-carboxamide]		65%
Cc1nc(-c2ccc(Cc3cc(C(=O)NC4CCOCC4)c4ncnn4c3)cc2)co1 [compound 35, 6-[[4-(2-methyloxazol-4-yl)phenyl]methyl]-N-tetrahydropyran-4-yl-[1,2,4]triazolo[1,5-a]pyridine-8-carboxamide]	9360 nM	31%

Continued, values first:

EC50	Emax	SMILES
729 nM	84%	Cn1cc(-c2ccc(Cc3cc(C(=O)N[C@H]4CCCC[C@@H]4O)c4ncnn4c3)cn2)cn1 [compound 13, N-[(1S,2S)-2-hydroxycyclohexyl]-6-[[6-(1-methylpyrazol-4-yl)-3-pyridyl]methyl]-[1,2,4]triazolo[1,5-a]pyridine-8-carboxamide]
	67%	Cn1cc(-c2ccc(Cc3cc(C(=O)N[C@@H]4CC[C@H]4O)c4ncnn4c3)cn2)cn1 [compound 16, N-[(1R,2R)-2-hydroxycyclobutyl]-6-[[6-(1-methylpyrazol-4-yl)-3-pyridyl]methyl]-[1,2,4]triazolo[1,5-a]pyridine-8-carboxamide]
739 nM	89%	Cn1cc(-c2ccc(Cc3cc(C(=O)N[C@H]4CCCC[C@@H]4O)c4ncnn4c3)cc2)cn1 [compound 31, N-[(1S,2S)-2-hydroxycyclohexyl]-6-[[4-(1-methylpyrazol-4-yl)phenyl]methyl]-[1,2,4]triazolo[1,5-a]pyridine-8-carboxamide]
1200 nM	76%	Cn1ccc(-c2cc(F)c(Cc3cc(C(=O)N[C@H]4CCOC[C@@H]4O)c4ncnn4c3)c(F)c2)n1 [compound 41, 6-[[2,6-difluoro-4-(1-methylpyrazol-3-yl)phenyl]methyl]-N-[(3R,4S)-3-hydroxytetrahydropyran-4-yl]-[1,2,4]triazolo[1,5-a]pyridine-8-carboxamide]
742 nM	79%	Cn1ccc(-c2ccc(Cc3cc(C(=O)N[C@H]4CCCC[C@@H]4O)c4ncnn4c3)c(F)c2)n1 [compound 46, 6-[[2-fluoro-4-(1-methylpyrazol-3-yl)phenyl]methyl]-N-[(1S,2S)-2-hydroxycyclohexyl]-[1,2,4]triazolo[1,5-a]pyridine-8-carboxamide]
790 nM	85%	Cn1ccc(-c2ccc(Cc3cc(C(=O)N[C@H]4CCOC[C@@H]4O)c4ncnn4c3)cc2)n1 [compound 6, N-[(3R,4S)-3-hydroxytetrahydropyran-4-yl]-6-[[4-(1-methylpyrazol-3-yl)phenyl]methyl]-[1,2,4]triazolo[1,5-a]pyridine-8-carboxamide]
1360 nM	90%	Cn1cc(-c2ccc(Cc3cc(C(=O)N[C@H]4CCOC[C@@H]4O)c4nccn4c3)cc2)cn1 [compound 65, N-[(3R,4S)-3-hydroxytetrahydropyran-4-yl]-6-[[4-(1-methylpyrazol-4-yl)phenyl]methyl]imidazo[1,2-a]pyridine-8-carboxamide]
691 nM	84%	Cn1cc(-c2cc(F)c(Cc3cc(C(=O)N[C@H]4CCOC[C@@H]4O)c4ncnn4c3)c(F)c2)cn1 [compound 43, 6-[[2,6-difluoro-4-(1-methylpyrazol-4-yl)phenyl]methyl]-N-[(3R,4S)-3-hydroxytetrahydropyran-4-yl]-[1,2,4]triazolo[1,5-a]pyridine-8-carboxamide]
123 nM	65%	Cn1cc(-c2ccc(Cc3cc(C(=O)N[C@H]4CCOC[C@@H]4O)c4nccn4c3)c(F)c2)cn1 [compound 55, 6-[[2-fluoro-4-(1-methylpyrazol-4-yl)phenyl]methyl]-N-[(3R,4S)-3-hydroxytetrahydropyran-4-yl]imidazo[1,2-a]pyridine-8-carboxamide]
